Biological target: recombinant human His-ATG7 enzyme (Homo sapiens (Human), UniProt O95352)
Assay: ATG7 Enzyme Assay (HTRF/FRET, ATG3-GST and Flag-Gabarap)
Assay type: biochemical
Conditions: for inhibition at 0.111 µM: Concentration 0.111 μM; for inhibition at 0.111 µM / inhibition at 0.123 µM: read-out: Percent Inhibition; for inhibition at 0.123 µM: Concentration 0.123 μM
Method in brief: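 0.15 nM His-ATG7 was reacted with 5 nM ATG3-GST, 5 nM Flag-Gabarap and 10 μM ATP in HEPES pH 7.5 containing MgCl2, GSH and TCEP for 105 min at 24° C, then stopped with EDTA/KF. Eu-anti-Flag and anti-GST-APC HTRF was read after 2 h. Results are given as single-concentration % inhibition or IC50.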

Sequence of recombinant human His-ATG7 enzyme (O95352 whole entry): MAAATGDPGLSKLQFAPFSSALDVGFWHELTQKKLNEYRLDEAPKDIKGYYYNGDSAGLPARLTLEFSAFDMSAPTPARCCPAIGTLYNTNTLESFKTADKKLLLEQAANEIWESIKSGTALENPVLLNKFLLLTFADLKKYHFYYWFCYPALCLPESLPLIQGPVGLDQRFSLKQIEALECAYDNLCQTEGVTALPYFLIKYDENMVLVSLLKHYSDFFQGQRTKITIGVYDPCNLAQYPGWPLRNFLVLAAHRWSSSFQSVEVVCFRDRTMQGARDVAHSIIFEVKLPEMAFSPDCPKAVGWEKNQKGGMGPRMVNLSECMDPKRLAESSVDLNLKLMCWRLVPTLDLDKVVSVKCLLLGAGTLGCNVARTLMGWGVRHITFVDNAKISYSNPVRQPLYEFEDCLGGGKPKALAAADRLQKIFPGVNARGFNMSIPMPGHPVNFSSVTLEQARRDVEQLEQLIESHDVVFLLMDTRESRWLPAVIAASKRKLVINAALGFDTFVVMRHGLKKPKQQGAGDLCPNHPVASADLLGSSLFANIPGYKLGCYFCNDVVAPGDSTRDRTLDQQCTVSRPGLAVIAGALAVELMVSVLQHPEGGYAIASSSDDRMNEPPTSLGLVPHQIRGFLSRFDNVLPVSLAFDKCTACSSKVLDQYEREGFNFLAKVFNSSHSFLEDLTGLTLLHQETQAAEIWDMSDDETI

IC50 [nM] | inhibition at 0.111 µM [%] | inhibition at 0.123 µM [%] | Structure (SMILES)
20 to 50 | 77 |  | Nc1ncnc2c1c(Sc1ccc3c(c1)OCC3)nn2[C@H]1C[C@H](O)[C@@H](COS(N)(=O)=O)O1 [Compound I-168, {(2R,3S,5R)-5-[4-amino-3-(2,3-dihydro-1-benzofuran-6-ylsulfanyl)-1H-pyrazolo[3,4-d]pyrimidin-1-yl]-3-hydroxytetrahydrofuran-2-yl}methyl sulfamate]
50 to 100 | 57 |  | Nc1ncnc2c1c(SC(F)F)nn2[C@H]1C[C@H](O)[C@@H](COS(N)(=O)=O)O1 [Compound I-169, [(2R,3S,5R)-5-{4-amino-3-[(difluoromethyl)sulfanyl]-1H-pyrazolo[3,4-d]pyrimidin-1-yl}-3-hydroxytetrahydrofuran-2-yl]methyl sulfamate]
100 to 500 | 50 |  | Nc1ncnc2c1c(Sc1c[nH]c3ccccc13)nn2[C@H]1C[C@H](O)[C@@H](COS(N)(=O)=O)O1 [Compound I-170, {(2R,3S,5R)-5-[4-amino-3-(1H-indol-3-ylsulfanyl)-1H-pyrazolo[3,4-d]pyrimidin-1-yl]-3-hydroxytetrahydrofuran-2-yl}methyl sulfamate]
100 to 500 | 48 |  | Nc1ncnc2c1c(C(F)(F)F)nn2[C@H]1C[C@H](O)[C@@H](COS(N)(=O)=O)O1 [Compound I-171, {(2R,3S,5R)-5-[4-amino-3-(trifluoromethyl)-1H-pyrazolo[3,4-d]pyrimidin-1-yl]-3-hydroxytetrahydrofuran-2-yl}methyl Sulfamate]
50 to 100 | 68 |  | CCSc1nn([C@H]2C[C@H](O)[C@@H](COS(N)(=O)=O)O2)c2ncnc(N)c12 [Compound I-172, {(2R,3S,5R)-5-[4-amino-3-(ethylsulfanyl)-1H-pyrazolo[3,4-d]pyrimidin-1-yl]-3-hydroxytetrahydrofuran-2-yl}methyl Sulfamate]
20 to 50 | 81 |  | COc1ccc(F)c(Sc2nn([C@H]3C[C@H](O)[C@@H](COS(N)(=O)=O)O3)c3ncnc(N)c23)c1 [Compound I-173, [(2R,3S,5R)-5-{4-amino-3-[(2-fluoro-5-methoxyphenyl)sulfanyl]-1H-pyrazolo[3,4-d]pyrimidin-1-yl}-3-hydroxytetrahydrofuran-2-yl]methyl sulfamate]
20 to 50 | 73 |  | Nc1ncnc2c1c(Sc1nccs1)nn2[C@H]1C[C@H](O)[C@@H](COS(N)(=O)=O)O1 [Compound I-174, {(2R,3S,5R)-5-[4-amino-3-(1,3-thiazol-2-ylsulfanyl)-1H-pyrazolo[3,4-d]pyrimidin-1-yl]-3-hydroxytetrahydrofuran-2-yl}methyl sulfamate]
50 to 100 | 66 |  | Nc1ncnc2c1c(Sc1ccc3c(c1)OCO3)nn2[C@H]1C[C@H](O)[C@@H](COS(N)(=O)=O)O1 [Compound I-175, {(2R,3S,5R)-5-[4-amino-3-(1,3-benzodioxol-5-ylsulfanyl)-1H-pyrazolo[3,4-d]pyrimidin-1-yl]-3-hydroxytetrahydrofuran-2-yl}methyl sulfamate]
100 to 500 | 26 |  | Cc1ccccc1Sc1nn([C@H]2C[C@H](O)[C@@H](COS(N)(=O)=O)O2)c2ncnc(N)c12 [Compound I-176, [(2R,3S,5R)-5-{4-amino-3-[(2-methylphenyl)sulfanyl]-1H-pyrazolo[3,4-d]pyrimidin-1-yl}-3-hydroxytetrahydrofuran-2-yl]methyl sulfamate]
20 to 50 | 70 |  | CC(C)(C)Sc1nn([C@H]2C[C@H](O)[C@@H](COS(N)(=O)=O)O2)c2ncnc(N)c12 [Compound I-177, {(2R,3S,5R)-5-[4-amino-3-(tert-butylsulfanyl)-1H-pyrazolo[3,4-d]pyrimidin-1-yl]-3-hydroxytetrahydrofuran-2-yl}methyl sulfamate]
20 to 50 | 74 |  | COc1ccc(Sc2nn([C@H]3C[C@H](O)[C@@H](COS(N)(=O)=O)O3)c3ncnc(N)c23)c(F)c1 [Compound I-178, [(2R,3S,5R)-5-{4-amino-3-[(2-fluoro-4-methoxyphenyl)sulfanyl]-1H-pyrazolo[3,4-d]pyrimidin-1-yl}-3-hydroxytetrahydrofuran-2-yl]methyl sulfamate]
100 to 500 | 50 |  | Nc1ncnc2c1c(Sc1cccc(Cl)c1)nn2[C@H]1C[C@H](O)[C@@H](COS(N)(=O)=O)O1 [Compound I-179, [(2R,3S,5R)-5-{4-amino-3-[(3-chlorophenyl)sulfanyl]-1H-pyrazolo[3,4-d]pyrimidin-1-yl}-3-hydroxytetrahydrofuran-2-yl]methyl sulfamate]
100 to 500 | 29 |  | CN(C)C(=O)CSc1nn([C@H]2C[C@H](O)[C@@H](COS(N)(=O)=O)O2)c2ncnc(N)c12 [Compound I-180, [(2R,3S,5R)-5-(4-amino-3-{[2-(dimethylamino)-2-oxoethyl]sulfanyl}-1H-pyrazolo[3,4-d]pyrimidin-1-yl)-3-hydroxytetrahydrofuran-2-yl]methyl sulfamate]
20 to 50 |  | 81 | CC(C)Sc1nn([C@H]2C[C@H](O)[C@@H](COS(N)(=O)=O)O2)c2ncnc(N)c12 [Compound I-181, {(2R,3S,5R)-5-[4-amino-3-(isopropylsulfanyl)-1H-pyrazolo[3,4-d]pyrimidin-1-yl]-3-hydroxytetrahydrofuran-2-yl}methyl Sulfamate]
50 to 100 | 66 |  | Nc1ncnc2c1c(Sc1ccccc1F)nn2[C@H]1C[C@H](O)[C@@H](COS(N)(=O)=O)O1 [Compound I-182, [(2R,3S,5R)-5-{4-amino-3-[(2-fluorophenyl)sulfanyl]-1H-pyrazolo[3,4-d]pyrimidin-1-yl}-3-hydroxytetrahydrofuran-2-yl]methyl sulfamate]
100 to 500 | 28 |  | Nc1ncnc2c1c(Sc1ccc3ccccc3n1)nn2[C@H]1C[C@H](O)[C@@H](COS(N)(=O)=O)O1 [Compound I-183, {(2R,3S,5R)-5-[4-amino-3-(quinolin-2-ylsulfanyl)-1H-pyrazolo[3,4-d]pyrimidin-1-yl]-3-hydroxytetrahydrofuran-2-yl}methyl sulfamate]
50 to 100 | 64 |  | CC(C)Oc1ccc(Sc2nn([C@H]3C[C@H](O)[C@@H](COS(N)(=O)=O)O3)c3ncnc(N)c23)cc1 [Compound I-184, [(2R,3S,5R)-5-{4-amino-3-[(4-isopropoxyphenyl)sulfanyl]-1H-pyrazolo[3,4-d]pyrimidin-1-yl}-3-hydroxytetrahydrofuran-2-yl]methyl sulfamate]
50 to 100 | 56 |  | CN1C(=O)Cc2cc(Sc3nn([C@H]4C[C@H](O)[C@@H](COS(N)(=O)=O)O4)c4ncnc(N)c34)ccc21 [Compound I-185, [(2R,3S,5R)-5-{4-amino-3-[(1-methyl-2-oxo-2,3-dihydro-1H-indol-5-yl)sulfanyl]-1H-pyrazolo[3,4-d]pyrimidin-1-yl}-3-hydroxytetrahydrofuran-2-yl]methyl sulfamate]
20 to 50 | 74 |  | Nc1ncnc2c1c(Sc1ccc3c(c1)CCO3)nn2[C@H]1C[C@H](O)[C@@H](COS(N)(=O)=O)O1 [Compound I-186, {(2R,3S,5R)-5-[4-amino-3-(2,3-dihydro-1-benzofuran-5-ylsulfanyl)-1H-pyrazolo[3,4-d]pyrimidin-1-yl]-3-hydroxytetrahydrofuran-2-yl}methyl sulfamate]
50 to 100 | 56 |  | Nc1ncnc2c1c(Sc1ccc(F)cc1)nn2[C@H]1C[C@H](O)[C@@H](COS(N)(=O)=O)O1 [Compound I-187, [(2R,3S,5R)-5-{4-amino-3-[(4-fluorophenyl)sulfanyl]-1H-pyrazolo[3,4-d]pyrimidin-1-yl}-3-hydroxytetrahydrofuran-2-yl]methyl sulfamate]
100 to 500 | 37 |  | N#CCSc1nn([C@H]2C[C@H](O)[C@@H](COS(N)(=O)=O)O2)c2ncnc(N)c12 [Compound I-188, [(2R,3S,5R)-5-{4-amino-3-[(cyanomethyl)sulfanyl]-1H-pyrazolo[3,4-d]pyrimidin-1-yl}-3-hydroxytetrahydrofuran-2-yl]methyl sulfamate]
50 to 100 | 60 |  | Nc1ncnc2c1c(Sc1ccc(Cl)cn1)nn2[C@H]1C[C@H](O)[C@@H](COS(N)(=O)=O)O1 [Compound I-189, [(2R,3S,5R)-5-{4-amino-3-[(5-chloropyridin-2-yl)sulfanyl]-1H-pyrazolo[3,4-d]pyrimidin-1-yl}-3-hydroxytetrahydrofuran-2-yl]methyl sulfamate]
100 to 500 |  | 35 | COc1nn([C@H]2C[C@H](O)[C@@H](COS(N)(=O)=O)O2)c2ncnc(N)c12 [Compound I-190, [(2R,3S,5R)-5-(4-amino-3-methoxy-1H-pyrazolo[3,4-d]pyrimidin-1-yl)-3-hydroxytetrahydrofuran-2-yl]methyl Sulfamate]
50 to 100 | 63 |  | Cc1ccc(F)c(Sc2nn([C@H]3C[C@H](O)[C@@H](COS(N)(=O)=O)O3)c3ncnc(N)c23)c1 [Compound I-191, [(2R,3S,5R)-5-{4-amino-3-[(2-fluoro-5-methylphenyl)sulfanyl]-1H-pyrazolo[3,4-d]pyrimidin-1-yl}-3-hydroxytetrahydrofuran-2-yl]methyl sulfamate]
50 to 100 | 61 |  | Nc1ncnc2c1c(I)nn2[C@H]1C[C@H](O)[C@@H](COS(N)(=O)=O)O1 [Compound I-192, [(2R,3S,5R)-5-(4-amino-3-iodo-1H-pyrazolo[3,4-d]pyrimidin-1-yl)-3-hydroxytetrahydrofuran-2-yl]methyl Sulfamate]

— patent publication US10865208B2, “ATG7 inhibitors and the uses thereof” (Millennium Pharmaceuticals, Inc., priority 2016, dated 2020)
